SMILES strings stand for the structures. Converted amounts (≈) assume the structure as drawn.

Data set [1] in a line: Stability of compound in CD-1 mouse liver microsomes assessed as percentage of parent compound remaining at 1 uM measured after 1 hr. A general note: Liver microsomes are a subcellular fraction often used to study metabolism.
For another data set, the system named is Trypanosoma cruzi. The data set is described as follows: Antitrypanosomal activity against Trypanosoma cruzi Tulahuen CL2 infected in human MRC-5 cells assessed as parasite growth. The data set is classed as functional, organism-based. The note with it: Tulahuen CL2, MRC5.
The subject of data set [2] is Leishmania infantum. Kind of data set: Antileishmanial activity against Leishmania infantum MHOM/MA(BE)/67 amastigotes infected in macrophages assessed as reduction in parasite burden by giemsa staining based microscopic analysis. Format: functional, organism-based.
Data set [3] can be described thus: Stability of compound in hamster liver microsomes assessed as percentage of parent compound remaining at 1 uM measured after 1 hr. Particulars: chinese hamster.
The next data set relates to MRC5. The data set is described as follows: Cytotoxicity against human MRC5 cells assessed as cell viability after 72 hrs by fluorimetric analysis. Format: ADME, cell-based. Particulars: MRC5, 72 h.
The subject of data set [4] is Leishmania donovani. The data set is described as follows: Antileishmanial activity against Leishmania donovani amastigotes infected in BALB/C mouse assessed as reduction in parasite burden in liver tissue at 50 mg/kg, po administered once per day for 5 days relative to control. Format: functional. The note with it: 120 h, time 5 day.
Data set [5] can be described thus: Stability of compound in human liver microsomes assessed as percentage of parent compound remaining at 1 uM measured after 1 hr.
The nature of data set [6]: Kinetic solubility of compound in water at pH7 by HPLC analysis. Particulars: pH 7.
The test system of data set [7] is Leishmania infantum. The data set is described as follows: animal or person. Particulars: in Mesocricetus auratus, po, 120 h, read-out: INH.
Description: Antileishmanial activity against Leishmania infantum amastigotes infected in golden hamster assessed as reduction in parasite load in liver tissue at 12.5 mg/kg, po administered once daily for 5 days relative to control
In data set [8] the test system is Leishmania infantum. The data set is described as follows: Antileishmanial activity against Leishmania infantum amastigotes infected in golden hamster assessed as reduction in parasite load in bone marrow tissue at 50 mg/kg, po administered once daily for 5 days relative to control. The note with it: 120 h, time 5 day. Format: functional.
Data set [9] has as its system Leishmania donovani. The data set is described as follows: Antileishmanial activity against Leishmania donovani amastigotes infected in BALB/C mouse assessed as reduction in parasite burden in liver tissue at 25 mg/kg, po administered once per day for 5 days relative to control. Particulars: 120 h, read-out: INH.
The test system of data set [10] is Leishmania infantum. Kind of data set: Antileishmanial activity against Leishmania infantum amastigotes infected in golden hamster assessed as reduction in parasite load in spleen tissue at 50 mg/kg, po administered once daily for 5 days relative to control. Format: functional. The note with it: 120 h, time 5 day.
In data set [11] the test system is Leishmania infantum. Kind of data set: Antileishmanial activity against Leishmania infantum amastigotes infected in golden hamster assessed as reduction in parasite load in liver tissue at 50 mg/kg, po administered once daily for 5 days relative to control. The data set is classed as functional. The note with it: 120 h, time 5 day.
Data set [12] relates to Leishmania infantum. The data set is described as follows: Antileishmanial activity against Leishmania infantum amastigotes infected in golden hamster assessed as reduction in parasite load in spleen tissue at 25 mg/kg, po administered once daily for 5 days relative to control. The note with it: in Mesocricetus auratus, 120 h, read-out: INH.
Data set [13] relates to Leishmania donovani. Kind of data set: Antileishmanial activity against Leishmania donovani amastigotes infected in BALB/C mouse assessed as reduction in parasite burden in liver tissue at 6.25 mg/kg, po administered once per day for 5 days relative to control. Format: functional. The note with it: 120 h, time 5 day.
The subject of data set [14] is Leishmania infantum. The data set is described as follows: animal or person. The note with it: in Mesocricetus auratus, po, 120 h, read-out: INH. This is another data set of the same source.
Description: Antileishmanial activity against Leishmania infantum amastigotes infected in golden hamster assessed as reduction in parasite load in bone marrow tissue at 12.5 mg/kg, po administered once daily for 5 days relative to control
Data set [15] deals with Leishmania donovani. The data set is described as follows: Antileishmanial activity against Leishmania donovani amastigotes infected in BALB/C mouse assessed as reduction in parasite burden in liver tissue at 3.13 mg/kg, po administered once per day for 5 days relative to control. The note with it: 120 h, time 5 day. The data set is classed as functional.
The subject of data set [16] is Leishmania infantum. The data set is described as follows: Antileishmanial activity against Leishmania infantum amastigotes infected in golden hamster assessed as reduction in parasite load in liver tissue at 25 mg/kg, po administered once daily for 5 days relative to control. Particulars: in Mesocricetus auratus, 120 h, read-out: INH.
Data set [17] has as its system Leishmania donovani. The data set is described as follows: Antileishmanial activity against Leishmania donovani amastigotes infected in mouse J774A.1 cells incubated for 72 hrs by luciferase assay. The data set is classed as functional, organism-based. The note with it: J774.A1, 72 h.
For data set [18], the system named is Leishmania infantum. Kind of data set: animal or person. The note with it: in Mesocricetus auratus, po, 120 h, read-out: INH. The source holds these as a separate data set.
Description: Antileishmanial activity against Leishmania infantum amastigotes infected in golden hamster assessed as reduction in parasite load in spleen tissue at 12.5 mg/kg, po administered once daily for 5 days relative to control
Data set [19] deals with Mycobacterium tuberculosis. Kind of data set: Antitubercular activity against Mycobacterium tuberculosis H37Rv assessed as reduction in microbial growth under anaerobic condition by luminescence analysis. The data set is classed as functional.
The subject of data set [20] is Mycobacterium tuberculosis. The data set is described as follows: Antitubercular activity against Mycobacterium tuberculosis H37Rv assessed as reduction in microbial growth under aerobic condition by luminescence analysis. Format: functional.
Data set [21] can be described thus: Kinetic solubility of compound in 0.1 M Hcl at pH1 by HPLC analysis. The data set is classed as physicochemical. The note with it: pH 1, read-out: Kinetic_solubility.
The target in the next data set is hERG (KCNH2) (Homo sapiens, UniProt Q12809). Kind of data set: Inhibition of human ERG expressed in HEK293 cells at 10 uM relative to control. Format: cell-based. Particulars: HEK293 cells expressing human ERG.
The nature of data set [22]: Selectivity index, ratio IC50 for cytotoxicity against human MRC5 cells to IC50 for antileishmanial activity against Leishmania infantum MHOM/MA(BE)/67 amastigotes infected in macrophages.
Data set [23] in a line: in vivo. The note with it: mouse, po, 25 mg/kg.
Data set [24] is described as follows: Half life in mouse at 25 mg/kg, po measured upto 24 hrs LC-MS/MS analysis. Particulars: in vivo.
Data set [25] in a line: in vivo. Particulars: chinese hamster, po.
Data set [26] can be described thus: AUClast in mouse at 25 mg/kg, po measured upto 24 hrs LC-MS/MS analysis. Particulars: in vivo.
Data set [27] can be described thus: AUClast in hamster at 41 to 51 mg/kg, po measured upto 24 hrs LC-MS/MS analysis. The note with it: chinese hamster, in vivo.
The nature of data set [28]: in vivo. Particulars: chinese hamster, po. This is another data set of the same source.
A short description of data set [29]: in vivo. The note with it: mouse, po, 25 mg/kg. This is another data set of the same source.
Data set [30] concerns Leishmania infantum. The data set is described as follows: Antileishmanial activity against Leishmania infantum amastigotes infected in golden hamster assessed as reduction in parasite load in spleen tissue at 40 mg/kg, po administered once daily for 5 days relative to control. The data set is classed as functional. The note with it: 120 h, time 5 day.
Data set [31] deals with Leishmania infantum. Kind of data set: Antileishmanial activity against Leishmania infantum amastigotes infected in golden hamster assessed as reduction in parasite load in liver tissue at 40 mg/kg, po administered once daily for 5 days relative to control. Format: functional. Particulars: 120 h, time 5 day.
Data set [32] has as its system Leishmania infantum. Kind of data set: Antileishmanial activity against Leishmania infantum amastigotes infected in golden hamster assessed as reduction in parasite load in bone marrow tissue at 40 mg/kg, po administered once daily for 5 days relative to control. The data set is classed as functional. Particulars: 120 h, time 5 day.

hERG (KCNH2), sequence (Q12809 whole entry): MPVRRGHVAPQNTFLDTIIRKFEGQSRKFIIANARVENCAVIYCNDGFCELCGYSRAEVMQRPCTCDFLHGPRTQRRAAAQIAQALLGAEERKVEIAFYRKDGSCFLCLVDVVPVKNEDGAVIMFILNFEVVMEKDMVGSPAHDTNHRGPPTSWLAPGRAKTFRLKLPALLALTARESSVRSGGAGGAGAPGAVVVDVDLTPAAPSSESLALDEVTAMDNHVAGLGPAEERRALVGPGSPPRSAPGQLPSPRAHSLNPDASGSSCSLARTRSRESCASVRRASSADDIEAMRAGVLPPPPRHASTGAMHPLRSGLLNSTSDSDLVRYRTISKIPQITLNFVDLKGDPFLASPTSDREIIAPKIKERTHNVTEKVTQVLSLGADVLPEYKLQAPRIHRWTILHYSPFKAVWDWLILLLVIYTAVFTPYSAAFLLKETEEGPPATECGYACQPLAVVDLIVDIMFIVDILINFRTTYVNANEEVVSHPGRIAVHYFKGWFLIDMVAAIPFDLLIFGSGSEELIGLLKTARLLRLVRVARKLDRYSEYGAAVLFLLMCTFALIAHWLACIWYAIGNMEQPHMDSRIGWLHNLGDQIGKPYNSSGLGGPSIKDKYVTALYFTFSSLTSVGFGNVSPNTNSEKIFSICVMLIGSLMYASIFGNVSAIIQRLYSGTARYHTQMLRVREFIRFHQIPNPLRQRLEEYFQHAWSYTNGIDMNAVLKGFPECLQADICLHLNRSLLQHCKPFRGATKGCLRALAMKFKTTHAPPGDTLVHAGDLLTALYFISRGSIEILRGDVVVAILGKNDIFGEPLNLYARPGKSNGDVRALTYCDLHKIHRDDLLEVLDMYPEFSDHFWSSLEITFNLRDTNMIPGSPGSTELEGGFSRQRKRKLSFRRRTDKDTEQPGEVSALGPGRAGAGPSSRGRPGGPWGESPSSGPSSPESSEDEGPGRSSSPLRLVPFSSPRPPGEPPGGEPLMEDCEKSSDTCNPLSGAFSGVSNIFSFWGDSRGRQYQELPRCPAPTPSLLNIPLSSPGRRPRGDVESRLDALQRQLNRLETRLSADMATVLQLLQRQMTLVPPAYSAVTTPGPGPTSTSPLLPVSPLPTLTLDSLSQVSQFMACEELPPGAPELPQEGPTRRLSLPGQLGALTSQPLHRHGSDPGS

The term fraction remaining denotes what is left of the initial amount, in per cent. As a reminder, the IC50 is the point on the concentration scale where inhibition reaches its midpoint. On to `CC1(COc2ccc(C(F)(F)F)nn2)CCn2cc([N+](=O)[O-])nc2O1` (stereo not given), for which the fraction remaining at 1 h, 1 µM in [1] was 89%; in data set [3] it was 58%; in data set [5], 90%. Also, the results for the half-inhibitory concentration (IC50) in the data set on Trypanosoma cruzi, in the data set on Leishmania infantum [2] and with MRC5 were 3.8 µM, over 64 µM and over 64 µM, respectively. In the data set with Leishmania donovani [4], the inhibition in vivo at 50 mg/kg worked out at 0%. For the same molecule, the solubility kinetic in data set [6] was determined as 10 µg/mL (≈ 27.8 µM).
For `C[C@@]1(COc2ccc(OC(F)(F)F)cc2)CCn2cc([N+](=O)[O-])nc2O1`, the inhibition in vivo at 12.5 mg/kg with Leishmania infantum [7] turned out to be 47.3%; in the data set with Leishmania infantum [14], 0%; in the data set with Leishmania infantum [18], 44.4%. Also, the results for the inhibition in vivo at 50 mg/kg with Leishmania infantum [8], in the data set with Leishmania infantum [10] and with Leishmania infantum [11] were 99.7%, 99.9% and 100%, respectively. Further, the inhibition in vivo at 25 mg/kg in the data set with Leishmania donovani [9] is 66%; with Leishmania infantum [12], 92.3%; in the data set with Leishmania infantum [16], 97.2%. Also, the inhibition in vivo at 6.25 mg/kg with Leishmania donovani [13] was found to be 49%. In the data set on Leishmania donovani [15], the inhibition in vivo at 3.13 mg/kg is 18%. In the data set on Leishmania donovani [17], this molecule showed an IC50 of 0.37 µM.
By MIC is commonly meant the lowest concentration found to suppress growth. As a reminder, the inhibition is the relative decrease from the control value, in per cent. Read a low inhibition as a weak effect. With `O=[N+]([O-])c1cn2c(n1)OC(COc1ccc(C(F)(F)F)cn1)CC2` (stereo not given), the minimum inhibitory concentration (MIC) in [19] stood at 20 µM; in data set [20], 2.6 µM. Moreover, the half-maximal inhibitory concentration (IC50) in the data set on Trypanosoma cruzi is 1 µM; with Leishmania infantum [2], over 64 µM; in the data set with MRC5, over 64 µM; in the data set on Leishmania donovani [17] it was 0.08 µM. Also, the values for the solubility kinetic in [21] and in data set [6] were 32 µg/mL (≈ 93 µM) and 37 µg/mL (≈ 107 µM), respectively. The same molecule had an inhibition at 10 µM at hERG (KCNH2) of 4%. The inhibition in vivo at 50 mg/kg in the data set on Leishmania donovani [4] is 46%.
With `CC1(COc2ncc(C(F)(F)F)cn2)CCn2cc([N+](=O)[O-])nc2O1` (stereo not given), the amount remaining at 1 h, 1 µM in data set [1] worked out at 86%; in data set [3], 40%; in data set [5], 88%. Besides, the IC50 in the data set on Trypanosoma cruzi is 3.1 µM; with Leishmania infantum [2] it was over 64 µM; in the data set with MRC5, over 64 µM. Moreover, the inhibition in vivo at 50 mg/kg in the data set on Leishmania donovani [4] is 35%. In [6], this molecule yielded a solubility kinetic of 9.3 µg/mL (≈ 25.9 µM).
`CC1(COc2ncc(C(F)(F)F)cc2F)CCn2cc([N+](=O)[O-])nc2O1` (stereo not given): the share remaining at 1 h, 1 µM in data set [1] was found to be 44%; in [3] it was 0.4%; in data set [5] it was 64%. For the same molecule, the half-maximal inhibitory concentration (IC50) is 0.73 µM in the data set with Trypanosoma cruzi, 0.47 µM in the data set on Leishmania infantum [2] and over 64 µM in the data set on MRC5. Moreover, in data set [22], the selectivity ratio is over 136. Moreover, in the data set with Leishmania donovani [4], the inhibition in vivo at 50 mg/kg stood at 56%. This molecule gave a solubility kinetic in data set [6] of 13 µg/mL (≈ 34.6 µM).
Usually Tmax stands for the time at which the peak concentration occurs. The term half-life denotes the time in which the quantity being followed falls by half. One may read the AUC(0-t) as exposure summed from dosing to a finite time, without extrapolation to infinity. Low values mean less exposure, high ones more exposure. For orientation: Cmax means the peak of the concentration-time curve. For `C[C@@]1(COc2ccc(C(F)(F)F)cn2)CCn2cc([N+](=O)[O-])nc2O1`, the time of peak concentration (Tmax) at 24 h in “in vivo [23]” was found to be 2 h; in “in vivo [25]”, 4.3 h. Also, the inhibition in vivo at 50 mg/kg with Leishmania infantum [8] was 37.4%; in the data set with Leishmania infantum [10] it was 52.3%; with Leishmania infantum [11], 46.5%; with Leishmania donovani [4] it was 38%. Besides, in data set [24], the half-life at 24 h was 1.5 h. Besides, the IC50 in the data set on Trypanosoma cruzi is 0.98 µM; with Leishmania infantum [2], 0.75 µM; with MRC5, over 64 µM. Besides, the AUC(0-t) at 24 h in [26] was found to be 183000 ng·h/mL; in data set [27], 924 ng·h/mL. The figures for the Cmax at 24 h in the data set “in vivo [28]” and in the data set “in vivo [29]” were 310 ng/mL and 33000 ng/mL, respectively. This molecule yielded a solubility kinetic in [6] of 21 µg/mL (≈ 58.6 µM).
Regarding `CCCCCCCCCCCCCCCCOP(=O)([O-])OCC[N+](C)(C)C` [MILTEFOSINE], the inhibition in vivo at 40 mg/kg in the data set on Leishmania infantum [30] was determined as 99.7%; in the data set on Leishmania infantum [31], 98.5%; with Leishmania infantum [32], 94.9%.

(Values after ChEMBL document CHEMBL5036301, “Heteroaryl ether analogues of an antileishmanial 7-substituted 2-nitroimidazooxazine lead afford attenuated hERG risk: In vitro and in vivo appraisal” (Eur J Med Chem, 2021).)
